Key:
Plasmodium parasite = experiment: Blood-stage infection of mice under daily doxycycline treatment (course of infection during infection/drug cure); type: in vivo
Description: The work described herein relates to giving mice and humans a blood stage malaria infection and daily doses of oral (human) or intraperitoneal (mice) doxycycline as a delayed death agent. This cycle can be repeated and we have given mice 1 or 3 cycles of infection/drug cure (IDC) with doxycycline.
Mice (BALB/c or C57/B6) received varying doses of Plasmodium parasite (10^5-10^7 trophozoite parasitised red blood cells; pRBC), administered via intravenous injection (200 μL). Mice were subsequently started on doxycycline treatment (doxycycline hydrate (Sigma) dissolved in 1× phosphate buffered saline, 50 mg/kg administered in ˜100 μL volume via intraperitoneal injection) approximately 1-2 hours post infection. Mice received treatment every day for 7 days. Subsequent infection and drug cures (IDCs) were administered 2 weeks from the day of last treatment (or 3 weeks between infections). Mice were challenged 4 weeks from the day of last treatment of the last round of IDC (or 5 weeks from last infection).
Blood smears were performed on D1, 2, 4 and 6 post infection during IDC 1, 2 and 3.

P. falciparum 7G8 = experiment: Blood stage P. falciparum infection of human volunteers under doxycycline, parasitaemia by qPCR; type: in vivo; settings: two volunteers, 3×10^6 P. falciparum pRBC, 100 mg doxycycline once daily for 21 days
Description: FIG. 13: Persistence of P. falciparum 7G8 in volunteers receiving doxycycline chemoprophylaxis. […] Volunteers received 3×106 pRBCs on D0, followed by doxycycline treatment administered orally (100 mg/day) from D0 to D20.
We have also started human experiments. Initially we have given two volunteers a blood stage infection initiated with 3×10^6 magnet-purified P. falciparum trophozoite-parasitized human red cells (pRBC). At the same time, volunteers were administered 100 mg doxycycline once daily for 21 days, although this could be changed to twice daily. A controlled release form of doxycycline (such as Atridox® comprising doxycycline hyclate) will also be tested.
Parasite concentration is determined whereby the log10 of each known concentration of a standard concentration range is plotted against the quantification cycle of Cq values of the test samples in a linear regression model (y=mx+b) using Biorad CFX manager 2.1 software.

For `C[C@H]1c2cccc(O)c2C(=O)C2=C(O)[C@]3(O)C(=O)C(C(N)=O)=C(O)[C@@H](N(C)C)[C@@H]3[C@@H](O)[C@@H]21` [doxycycline], the “time the infection takes to clear” value (Plasmodium parasite; 10^5-10^7 pRBC i.v., doxycycline 50 mg/kg i.p. daily for 7 days) was “approximately 4 days”, the “condition of the mice during the infection” value (Plasmodium parasite; pRBC i.v. with doxycycline 50 mg/kg i.p. daily for 7 days) was “remain well” and the “illness of the volunteers” value (P. falciparum 7G8) was “did not become ill”.
